Results on 8 compounds are retold here after patent publication US9382228B2 (priority 2013, dated 2016).

For assay [1], the target named is unphosphorylated c-KIT kinase (uKIT, Seq. ID no. 2) (Homo sapiens, UniProt P10721). Put plainly: biochemical. The settings on record: uKIT, enzymatic assay, ATP 2000 μM.
Protocol: uKit kinase (Seq. ID No. 2) Assay
In this assay, the oxidation of NADH (thus the decrease at A340 nm) was continuously monitored spectrophometrically. […] The inhibition reaction was started by mixing serial diluted test compound with the above reaction mixture. The absorption at 340 nm was monitored continuously for 4 hours at 30° C. on Synergy 2 plate reader (BioTech).
The target in assay [2] is T1, unphosphorylated c-FMS kinase (uFMS, Seq. ID no. 1) (Homo sapiens, UniProt P07333).
T1 sequence (P07333 538-972): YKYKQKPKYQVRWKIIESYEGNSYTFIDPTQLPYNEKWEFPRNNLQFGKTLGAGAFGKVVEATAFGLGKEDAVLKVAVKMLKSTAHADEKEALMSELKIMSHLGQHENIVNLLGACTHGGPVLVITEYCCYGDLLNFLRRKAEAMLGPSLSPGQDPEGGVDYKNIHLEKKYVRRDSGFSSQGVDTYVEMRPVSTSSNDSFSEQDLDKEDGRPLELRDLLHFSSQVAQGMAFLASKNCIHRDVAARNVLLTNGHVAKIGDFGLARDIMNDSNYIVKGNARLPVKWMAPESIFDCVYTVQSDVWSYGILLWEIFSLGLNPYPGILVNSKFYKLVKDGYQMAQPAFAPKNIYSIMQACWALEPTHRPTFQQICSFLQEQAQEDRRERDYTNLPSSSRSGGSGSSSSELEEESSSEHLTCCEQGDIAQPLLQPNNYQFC
The assay can be described thus: biochemical. The note with it: uFMS, enzymatic assay, ATP 500 μM.

In assay [3] the target is unphosphorylated PDGFRβ kinase (uPDGFRβ, Seq. ID No. 3) (Homo sapiens, UniProt P09619). Put plainly: biochemical. The settings on record: uPDGFRb, enzymatic assay, ATP 500 μM.
Assay [4] deals with phospho-FMS in THP-1 cells. Put plainly: cells. The note with it: Homo sapiens, THP-1, read-out: pFMS inhibition in THP-1 cells.
A further assay concerns osteoclast precursors. The assay can be described thus: cells. The format is cell-based. The settings on record: read-out: Osteoclast assay.
The subject of a further assay is M-NFS-60 cells. Put plainly: cells. The settings on record: 67 h, read-out: M-NFS-60 cell proliferation.

Chain of unphosphorylated c-KIT kinase (uKIT, Seq. ID no. 2) (P10721 with tags, fused parts or gaps): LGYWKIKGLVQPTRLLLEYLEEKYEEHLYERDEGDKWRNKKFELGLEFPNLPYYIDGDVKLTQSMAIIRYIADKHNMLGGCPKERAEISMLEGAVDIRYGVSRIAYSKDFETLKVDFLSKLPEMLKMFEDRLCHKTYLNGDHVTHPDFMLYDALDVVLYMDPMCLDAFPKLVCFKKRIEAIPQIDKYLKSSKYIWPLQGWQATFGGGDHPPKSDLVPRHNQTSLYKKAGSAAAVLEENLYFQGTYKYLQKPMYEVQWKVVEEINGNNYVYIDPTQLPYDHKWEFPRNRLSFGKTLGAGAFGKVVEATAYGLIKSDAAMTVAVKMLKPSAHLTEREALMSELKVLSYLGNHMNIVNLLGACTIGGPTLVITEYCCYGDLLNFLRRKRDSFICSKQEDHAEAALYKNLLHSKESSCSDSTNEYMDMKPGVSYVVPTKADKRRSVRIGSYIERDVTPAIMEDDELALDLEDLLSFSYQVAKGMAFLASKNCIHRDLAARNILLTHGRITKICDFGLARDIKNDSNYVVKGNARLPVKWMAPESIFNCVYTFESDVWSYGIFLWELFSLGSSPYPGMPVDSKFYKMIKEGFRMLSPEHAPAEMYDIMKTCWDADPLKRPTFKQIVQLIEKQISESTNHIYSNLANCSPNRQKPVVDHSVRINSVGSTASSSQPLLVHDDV
Chain of unphosphorylated PDGFRβ kinase (uPDGFRβ, Seq. ID No. 3) (P09619 557-1106): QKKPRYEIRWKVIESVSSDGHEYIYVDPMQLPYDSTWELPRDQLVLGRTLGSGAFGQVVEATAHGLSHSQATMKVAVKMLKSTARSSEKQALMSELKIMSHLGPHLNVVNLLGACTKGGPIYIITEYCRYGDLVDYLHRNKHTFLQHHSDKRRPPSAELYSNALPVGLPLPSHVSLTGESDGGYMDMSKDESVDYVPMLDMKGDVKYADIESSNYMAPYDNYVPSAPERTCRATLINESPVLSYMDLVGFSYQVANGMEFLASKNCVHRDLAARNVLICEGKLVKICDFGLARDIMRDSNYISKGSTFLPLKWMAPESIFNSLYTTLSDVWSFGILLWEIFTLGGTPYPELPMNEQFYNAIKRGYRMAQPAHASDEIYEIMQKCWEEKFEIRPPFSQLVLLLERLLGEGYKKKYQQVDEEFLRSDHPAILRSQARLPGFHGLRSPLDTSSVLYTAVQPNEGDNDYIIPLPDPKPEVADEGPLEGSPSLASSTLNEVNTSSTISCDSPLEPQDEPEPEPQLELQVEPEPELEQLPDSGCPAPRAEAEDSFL
Protocol for M-NFS-60 cells: M-NFS-6 Cell Proliferation Assay
A serial dilution of test compound was dispensed into a 384-well black clear bottom plate (Corning, Corning, N.Y.). Two thousand five hundred cells were added per well in 50 μL complete growth medium. […] IC50 values were calculated from a series of percent inhibition values determined at a range of inhibitor concentrations using software routines as implemented in the GraphPad Prism software package.

`CCc1nc(NC(=O)NC(=O)C2(C)CCOCC2)ccc1Oc1ccnc(-c2cnn(C)c2)c1` [Example 167, N-((6-ethyl-5-((2-(1-methyl-1H-pyrazol-4-yl)pyridin-4-yl)oxy)pyridin-2-yl)carbamoyl)-4-methyltetrahydro-2H-pyran-4-carboxamide]: the IC50 is more than 1000 nM in assay [1]; 10 to 100 nM in assay [2]; more than 1000 nM in assay [3]; 10 to 100 nM in assay [4]; 100 to 1000 nM in the assay with osteoclast precursors; 100 to 1000 nM in the assay with M-NFS-60 cells.
On to `COC(C)(C)C(=O)NC(=O)Nc1cc(C)c(Oc2ccnc(-n3cnc(C)c3)c2)cn1` [Example 164, 2-methoxy-2-methyl-N-((4-methyl-5-((2-(4-methyl-1H-imidazol-1-yl)pyridin-4-yl)oxy)pyridin-2-yl)carbamoyl)propanamide], for which the IC50 in assay [1] was more than 1000 nM; in assay [2], less than 10 nM; in assay [3], more than 1000 nM; in assay [4], less than 10 nM; with osteoclast precursors it was 10 to 100 nM; in the assay with M-NFS-60 cells it was less than 10 nM.
Consider `CCn1cc(-c2cc(Oc3ccc(NC(=O)NC(=O)C(C)(C)C)nc3C)ccn2)cn1` [Example 60, N-((5-((2-(1-ethyl-1H-pyrazol-4-yl)pyridin-4-yl)oxy)-6-methylpyridin-2-yl)carbamoyl)pivalamide], for which the IC50 in assay [1] is more than 1000 nM; in assay [2], less than 10 nM; in assay [3], more than 1000 nM; in assay [4], less than 10 nM; with osteoclast precursors, 10 to 100 nM; with M-NFS-60 cells it was 10 to 100 nM.
Consider `Cc1cn(-c2cc(Oc3ccc(NC(=O)NC(=O)C4(C)CC4)nc3C)ccn2)cn1` [Example 135, 1-methyl-N-((6-methyl-5-((2-(4-methyl-1H-imidazol-1-yl)pyridin-4-yl)oxy)pyridin-2-yl)carbamoyl)cyclopropanecarboxamide], for which the IC50 in assay [1] was more than 1000 nM; in assay [2] it was 10 to 100 nM; in assay [3], more than 1000 nM; in assay [4] it was 10 to 100 nM; with osteoclast precursors it was less than 10 nM; in the assay on M-NFS-60 cells, 10 to 100 nM.
With `CN1CCN(CC(=O)NC(=O)Nc2ccc(Oc3ccnc(-c4cnn(C)c4)c3)cn2)CC1` [Example 49, N-((5-((2-(1-methyl-1H-pyrazol-4-yl)pyridin-4-yl)oxy)pyridin-2-yl)carbamoyl)-2-(4-methylpiperazin-1-yl)acetamide], the IC50 in assay [1] is more than 1000 nM; in assay [2] it was 10 to 100 nM; in assay [3], more than 1000 nM; in assay [4] it was 100 to 1000 nM; in the assay on osteoclast precursors, 100 to 1000 nM; with M-NFS-60 cells it was more than 1000 nM.
Take `Cc1nc(NC(=O)NC(=O)C2CC3(CCC3)C2)ccc1Oc1ccnc(-c2cnn(C)c2)c1` [Example 32, N-((6-methyl-5-((2-(1-methyl-1H-pyrazol-4-yl)pyridin-4-yl)oxy)pyridin-2-yl)carbamoyl)spiro[3.3]heptane-2-carboxamide]: the IC50 is less than 10 nM in assay [1]; less than 10 nM in assay [2]; 10 to 100 nM in assay [3]; less than 10 nM in assay [4]; less than 10 nM in the assay on osteoclast precursors; 10 to 100 nM in the assay on M-NFS-60 cells.
With `Cn1cc(-c2cc(Oc3ccc(NC(=O)NC(=O)C(C)(C)C)nc3)ccn2)cn1` [Example 26, N-((5-((2-(1-methyl-1H-pyrazol-4-yl)pyridin-4-yl)oxy)pyridin-2-yl)carbamoyl)pivalamide], the IC50 was 100 to 1000 nM in assay [1]; less than 10 nM in assay [2]; 100 to 1000 nM in assay [3]; 10 to 100 nM in assay [4]; less than 10 nM in the assay on osteoclast precursors; less than 10 nM in the assay on M-NFS-60 cells.
With `CCc1nc(NC(=O)NC(=O)C2CCOCC2)ccc1Oc1ccnc(-c2cnn(C)c2)c1` [Example 83, N-((6-ethyl-5-((2-(1-methyl-1H-pyrazol-4-yl)pyridin-4-yl)oxy)pyridin-2-yl)carbamoyl)tetrahydro-2H-pyran-4-carboxamide], the IC50 in assay [1] was more than 1000 nM; in assay [2], less than 10 nM; in assay [3] it was more than 1000 nM; in assay [4], 100 to 1000 nM; with osteoclast precursors, 10 to 100 nM; with M-NFS-60 cells, 10 to 100 nM.
